Values joined by “and” are separate entries in the source; they are usually repeats but may differ in a detail not shown here. Equal values may be shown once. Read-outs that look alike come from different tables or passages of the source.
What was measured:
[1] = design: method as in PMID 31125896; settings: BALB/c mice, oral; cited from earlier work
EGFP-SD = type: cell-based, mouse; settings: for Plateau, EGFP-SD degradation: control = 1; for K, EGFP-SD degradation: one phase decay
EGFP-ZFP91 = EGFP-ZFP91 (UniProt P42212+Q8C7D2, F64L/H231L/INS1V/S65T); type: cell-based, mouse; settings: read-out: DC50, EGFP-ZFP91, stable
Chain of EGFP-ZFP91 (Q8C7D2 whole entry, looked up, stated change not applied, other chains not shown): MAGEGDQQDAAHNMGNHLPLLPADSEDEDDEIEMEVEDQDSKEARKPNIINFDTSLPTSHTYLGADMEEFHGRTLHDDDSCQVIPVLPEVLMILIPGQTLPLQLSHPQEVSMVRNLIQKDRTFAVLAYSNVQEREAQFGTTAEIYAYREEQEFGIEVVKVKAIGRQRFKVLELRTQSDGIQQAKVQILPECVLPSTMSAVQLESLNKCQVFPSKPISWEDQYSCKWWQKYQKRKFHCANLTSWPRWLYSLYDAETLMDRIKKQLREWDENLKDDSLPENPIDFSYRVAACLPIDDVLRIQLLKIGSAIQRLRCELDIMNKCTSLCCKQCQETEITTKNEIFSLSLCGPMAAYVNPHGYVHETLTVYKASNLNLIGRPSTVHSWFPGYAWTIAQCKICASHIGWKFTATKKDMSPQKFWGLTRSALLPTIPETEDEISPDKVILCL

GL-261 = GL-261 orthotopic model, growth in brain by MRI; type: in vivo, mouse; settings: Pdcd1SD/SD/CrbnI391V/I391V mice, IBR oral administration
Description: In vivo proliferation of another tumor cell line, GL-261 […], was also examined to confirm the effect of PD-1 reduction other than the MC-38 adenocarcinoma cell line.[34]
GL-261 cells were passaged one day before inoculation and resuspended in HBSS at a concentration of 1 × 10^7 cells/mL. The mice were anesthetized by intraperitoneal injection of a combination of the three drugs described in the previous section and immobilized in a stereotactic frame (RWD Life Science, US). After a midline scalp incision, a small burr hole located 2 mm to the right and 1 mm anterior to the bregma was drilled into the skull (AP:1.0 mm, ML:-2.0 mm). The syringe needle was inserted at a depth of 3.0 mm and then raised 0.4 mm to get to a depth of 2.6 mm. 2 μL of cell (2 x10^4 cells) was injected using a 10 μL syringe (Hamilton, USA) connected to a syringe pump (KD Scientific, US; injection rate: 0.5 μL/min). After injection, the needle was left in place for an additional 5 min to avoid backflow. […]
All the MR experiments were performed at the Medical Research Support Center, Graduate School of Medicine, Kyoto University, Japan. […] The respiratory rate and rectal temperature of the animals were continuously monitored using a dedicated system (Model 1025, MR-compartible Small Animal Monitoring & Gating System; SA Instruments, Inc., NY, USA) and software (PC-SAM V8.04; SA Instruments). […]

[2] = mouse wild-type cell lines, independent of IBR concentration

O=C1CC[C@H](N2Cc3c(OCc4ccc(CN5CCOCC5)cc4)cccc3C2=O)C(=O)N1 [IBR, iberdomide]
half-life (T1/2) [1]: 54 min
time of serum concentration peak [1]: 0.14 h
Tau, EGFP-SD degradation (EGFP-SD; EL4, 0.01 µM IBR): 0.5057
Plateau, EGFP-SD degradation (EGFP-SD; EL4, 0.01 µM IBR): 0.106 and 0.11
K, EGFP-SD degradation (EGFP-SD; EL4, 0.01 µM IBR): 1.978
Tau, EGFP-SD degradation (EGFP-SD; EL4, 0.1 µM IBR): 0.4779
Plateau, EGFP-SD degradation (EGFP-SD; EL4, 0.1 µM IBR): 0.0948
K, EGFP-SD degradation (EGFP-SD; EL4, 0.1 µM IBR): 2.093
Tau, EGFP-SD degradation (EGFP-SD; EL4, 1 µM IBR): 0.4762
Plateau, EGFP-SD degradation (EGFP-SD; EL4, 1 µM IBR): 0.09035
K, EGFP-SD degradation (EGFP-SD; EL4, 1 µM IBR): 2.1
Tau, EGFP-SD degradation (EGFP-SD; NIH/3T3, 0.01 µM IBR): 0.5217
Plateau, EGFP-SD degradation (EGFP-SD; NIH/3T3, 0.01 µM IBR): 0.1206 and 0.12
K, EGFP-SD degradation (EGFP-SD; NIH/3T3, 0.01 µM IBR): 1.917
Tau, EGFP-SD degradation (EGFP-SD; NIH/3T3, 0.1 µM IBR): 0.4536
Plateau, EGFP-SD degradation (EGFP-SD; NIH/3T3, 0.1 µM IBR): 0.09879
K, EGFP-SD degradation (EGFP-SD; NIH/3T3, 0.1 µM IBR): 2.205
Tau, EGFP-SD degradation (EGFP-SD; NIH/3T3, 1 µM IBR): 0.4422
Plateau, EGFP-SD degradation (EGFP-SD; NIH/3T3, 1 µM IBR): 0.0887
K, EGFP-SD degradation (EGFP-SD; NIH/3T3, 1 µM IBR): 2.261
Tau, EGFP-SD degradation (EGFP-SD; mESCs, 0.01 µM IBR): 0.9013
Plateau, EGFP-SD degradation (EGFP-SD; mESCs, 0.01 µM IBR): 0.1599 and 0.16
K, EGFP-SD degradation (EGFP-SD; mESCs, 0.01 µM IBR): 1.11
Tau, EGFP-SD degradation (EGFP-SD; mESCs, 0.1 µM IBR): 0.8006
Plateau, EGFP-SD degradation (EGFP-SD; mESCs, 0.1 µM IBR): 0.1092
K, EGFP-SD degradation (EGFP-SD; mESCs, 0.1 µM IBR): 1.249
Tau, EGFP-SD degradation (EGFP-SD; mESCs, 1 µM IBR): 0.8069
Plateau, EGFP-SD degradation (EGFP-SD; mESCs, 1 µM IBR): 0.09822
K, EGFP-SD degradation (EGFP-SD; mESCs, 1 µM IBR): 1.239
time after which EGFP-SD expression was minimal (EGFP-SD; mESCs, NIH/3T3, EL4): 6 h
time to halve the amount of EGFP-SD (EGFP-SD; [2]): 20 to 40 min
time to reduce EGFP-SD to 10% (EGFP-SD; [2]): approximately 3 h
DC50 (EGFP-ZFP91; B6J-S1 mESCs, Figure 5B): 20.9 nM
DC50 (EGFP-ZFP91; CrbnI391V/I391V mESCs, Figure 5E): 0.834 nM
proliferation of GL-261 (GL-261): suppressed

From paper PMC12274739, “Differential substrate degradation by super-degron: EGFP in wild-type mouse cells, PD-1 requires CRBN humanization” (iScience, 2025)
